From patent publication US11396517B1, “Exo-aza spiro inhibitors of menin-MLL interaction” (Janssen Pharmaceutica NV, priority 2017, dated 2022)

What follows are compounds tested against T1, menin (Homo sapiens, UniProt O00255, T541A) (assay: Menin/MLL homogenous time-resolved fluorescence (HTRF) assay). Conditions: location 2; read-out: (2) location 2 Menin HTRF assay (IC50 (nM)).
T1 construct: Menin (a.a. 1-610-6×his tag)
T1 sequence (O00255 with tags, fused parts or gaps T541A): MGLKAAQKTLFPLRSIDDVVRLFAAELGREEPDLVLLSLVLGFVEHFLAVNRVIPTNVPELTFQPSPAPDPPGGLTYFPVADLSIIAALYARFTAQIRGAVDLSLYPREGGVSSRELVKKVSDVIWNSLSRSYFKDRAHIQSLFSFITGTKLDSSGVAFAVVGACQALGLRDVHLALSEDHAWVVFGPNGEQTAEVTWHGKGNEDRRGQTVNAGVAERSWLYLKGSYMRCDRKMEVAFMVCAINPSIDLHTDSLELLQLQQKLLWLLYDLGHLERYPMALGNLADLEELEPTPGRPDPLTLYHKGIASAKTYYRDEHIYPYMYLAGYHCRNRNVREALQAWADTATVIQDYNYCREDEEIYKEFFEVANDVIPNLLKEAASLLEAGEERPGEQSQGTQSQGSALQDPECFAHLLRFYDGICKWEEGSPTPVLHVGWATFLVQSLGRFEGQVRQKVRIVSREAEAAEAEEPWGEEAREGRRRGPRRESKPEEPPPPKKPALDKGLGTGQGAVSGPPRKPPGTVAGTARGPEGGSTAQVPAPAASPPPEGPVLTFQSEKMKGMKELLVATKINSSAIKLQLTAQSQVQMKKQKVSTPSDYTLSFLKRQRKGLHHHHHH
Type: binding
Experimental: 2) Menin/MLL Homogenous Time-Resolved Fluorescence (HTRF) Assay
To an untreated, white 384-well microtiter plate was added 40 nL 200× test compound in DMSO and 4 μL 2× terbium chelate-labeled menin (vide infra for preparation) in assay buffer (40 mM Tris HCl, pH 7.5, 50 mM NaCl, 1 mM DTT and 0.05% Pluronic F-127). After incubation of test compound and terbium chelate-labeled menin for 5 min at ambient temperature, 4 μL 2× FITC-MBM1 peptide (FITC-β-alanine-[…]-NH2 (SEQ ID NO: 23)) in assay buffer was added, the microtiter plate centrifuged at 1000 rpm for 1 min and the assay mixtures incubated for 15 min at ambient temperature. The relative amount of menin.FITC-MBM1 complex present in an assay mixture is determined by measuring the homogenous time-resolved fluorescence (HTRF) of the terbium/FITC donor/acceptor fluorphore pair using a BMG Pherastar plate reader (ex. 337 nm/terbium em. 490 nm/FITC em. 520 nm) at ambient temperature. The degree of fluorescence resonance energy transfer (the HTRF value) is expressed as the ratio of the fluorescence emission intensities of the FITC and terbium fluorophores (Fern 520 nm/Fem 490 nm). The final concentrations of reagents in the binding assay are […] terbium chelate-labeled menin (location 2), 75 nM FITC-MBM1 peptide and 0.5% DMSO in assay buffer. Dose-response titrations of test compounds are conducted using an 11 point, three-fold serial dilution scheme, starting typically at 25 μM (location 1) or starting typically at 10 μM (location 2).
Compound potencies were determined by first calculating % inhibition at each compound concentration according to equation 1: % inhibition=((HC−LC)−(HTRF^compound−LC))/(HC−LC))*100 (Eqn 1)
Where LC and HC are the HTRF values of the assay in the presence or absence of a saturating concentration of a compound that competes with FITC-MBM1 for binding to menin, and HTRF^compound is the measured HTRF value in the presence of the test compound. FTC and LC HTRF values represent an average of at least 16 replicates per plate.
Where Bottom and Top are the lower and upper asymptotes of the dose-response curve, respectively, IC50 is the concentration of compound that yields 50% inhibition of signal and h is the Hill coefficient.
Preparation of Terbium cryptate labeling of Menin: Menin (a.a. 1-610-6×his tag (“6×his” disclosed as SEQ ID NO: 3)) was labeled with terbium cryptate as follows. 2 mg of Menin was buffer exchanged into 1× phosphate buffered saline. 16 uM Menin was incubated with 4-fold molar excess NHS-terbium cryptate (Cisbio Bioassays, Bedford, Mass.) for 2 hours at room temperature. The labeled protein was purified away from free label by running the reaction over a Superdex 200 Increase 10/300 GL column at 0.75 ml/min. Peak fractions were collected, aliquoted and frozen at −80° C.

IC50 [nM] | Compound
123 | FC(F)(F)Cc1cc2c(N3CCC4(CCC(Nc5ccccc5)C4)C3)ncnc2s1 (single isomer, unassigned) [Compound 32]
338 | FC(F)(F)Cc1cc2c(N3CCC4(CCC(Nc5ccccc5)C4)C3)ncnc2s1 (single isomer, unassigned) [Compound 34]
8340 | O=C(NC1CC2(CCN(c3ncnc4sc(CC(F)(F)F)cc34)C2)C1)c1ccccc1 (single isomer, unassigned) [Compound 37]
115 | CNc1nc(N2CCC3(CC(NCc4ccccc4)C3)C2)c2cc(CC(F)(F)F)sc2n1 (single isomer, unassigned) [Compound 62]
133 | CNC(=O)c1ccc(NC2CC3(CCN(c4nc(NC)nc5sc(CC(F)(F)F)cc45)C3)C2)cc1 (single isomer, unassigned) [Compound 65]
39.6 | CNC(=O)c1ccc(NC2CC3(CCN(c4ncnc5sc(CC(F)(F)F)cc45)C3)C2)c(Cl)c1 (single isomer, unassigned) [Compound 68]
433 | CNC(=O)c1ccc(NC2CC3(CCN(c4ncnc5sc(CC(F)(F)F)cc45)C3)C2)nc1 (single isomer, unassigned) [Compound 71]
60.4 | CN(C)CCNC(=O)c1ccc(NC2CC3(CCN(c4ncnc5sc(CC(F)(F)F)cc45)C3)C2)cc1 (single isomer, unassigned) [Compound 74]
166 | Cn1c(=O)[nH]c2cc(NC3CC4(CCN(c5ncnc6sc(CC(F)(F)F)cc56)C4)C3)ccc21 (single isomer, unassigned) [Compound 91]
213 | CNC(=O)c1ccc(NC2CCC3(C2)CN(c2ncnc4sc(CC(F)(F)F)cc24)C3)cc1 (single isomer, unassigned) [Compound 97]
3040 | O=C1CN(C(=O)c2ccc(NC3CC4(CCN(c5ncnc6sc(CC(F)(F)F)cc56)C4)C3)cc2)CCN1 (single isomer, unassigned) [Compound 105]
256 | Cc1nc(N2CC3(CC[C@H](NCc4cccc(-c5cc[nH]n5)c4)C3)C2)c2cc(CC(F)(F)F)sc2n1 (single isomer, unassigned) [Compound 118]
370 | FC(F)(F)Cc1cc2c(N3CCC4(CC(Nc5ccccc5)C4)C3)ncnc2s1 (single isomer, unassigned) [Compound 150]
288 | FC(F)(F)Cc1cc2c(N3CCC4(CC(Nc5cccnc5)C4)C3)ncnc2s1 (single isomer, unassigned) [Compound 152]
265 | N#CC1(c2ccc(NC3CC4(CCN(c5ncnc6sc(CC(F)(F)F)cc56)C4)C3)cc2)CC1 (single isomer, unassigned) [Compound 171]
2900 | CS(=O)(=O)N1CCN(C(=O)c2ccc(NC3CC4(CCN(c5ncnc6sc(CC(F)(F)F)cc56)C4)C3)cc2)CC1 (single isomer, unassigned) [Compound 179]
3430 | COC1CCN(C(=O)c2ccc(NC3CC4(CCN(c5ncnc6sc(CC(F)(F)F)cc56)C4)C3)cc2)CC1 (single isomer, unassigned) [Compound 184]
200 | O=C(c1ccc(NC2CC3(CCN(c4ncnc5sc(CC(F)(F)F)cc45)C3)C2)cc1)N1CCNCC1 (single isomer, unassigned) [Compound 188]
84.6 | CNC(=O)c1ccc(NC2CC3(CCN(c4ncnc5sc(CC(F)(F)F)cc45)C3)C2)cc1F (single isomer, unassigned) [Compound 204]
65.3 | N#CCc1ccc(NC2CC3(CCN(c4ncnc5sc(CC(F)(F)F)cc45)C3)C2)c(Cl)c1 (single isomer, unassigned) [Compound 209]

IC50 [nM] | Compound
70.4 | N#CCc1ccc(NC2CC3(CCN(c4ncnc5sc(CC(F)(F)F)cc45)C3)C2)cc1Cl (single isomer, unassigned) [Compound 210]
118 | O=S(=O)(c1ccc(NC2CC3(CCN(c4ncnc5sc(CC(F)(F)F)cc45)C3)C2)cc1)N1CCOCC1 (single isomer, unassigned) [Compound 220]
208 | CNC(=O)c1ccc(NC2CC3(CCN(c4ncnc5sc(CC(F)(F)F)cc45)C3)C2)cc1C1CCN(C)CC1 (single isomer, unassigned) [Compound 231]
108 | CN1CCC(c2cc(NC3CC4(CCN(c5ncnc6sc(CC(F)(F)F)cc56)C4)C3)ccc2C(=O)N2CCOCC2)CC1 (single isomer, unassigned) [Compound 233]
516 | CNC(=O)c1c(F)cc(NC2CC3(CCN(c4ncnc5sc(CC(F)(F)F)cc45)C3)C2)cc1F (single isomer, unassigned) [Compound 244]
> 10000 | O=C(c1cnc(NC2CC3(CCN(c4ncnc5sc(CC(F)(F)F)cc45)C3)C2)nc1)N1CCOCC1 (single isomer, unassigned) [Compound 259]
529 | Cc1nc(N2CCC3(CC(NCc4ccccc4)C3)C2)c2cc(CC(F)(F)F)sc2n1 (single isomer, unassigned) [Compound 261]
1020 | COc1nc(N2CCC3(CC(Nc4ccccc4)C3)C2)c2cc(CC(F)(F)F)sc2n1 (single isomer, unassigned) [Compound 266]
943 | CNc1nc(N2CCC3(CC(Nc4ccccc4)C3)C2)c2cc(CC(F)(F)F)sc2n1 (single isomer, unassigned) [Compound 268]
158 | CC(C)(N[C@@H]1CCC2(C1)CN(c1ncnc3sc(CC(F)(F)F)cc13)C2)c1ccccc1 (single isomer, unassigned) [Compound 280]
231 | CNS(=O)(=O)c1ccc(N[C@@H]2CCC3(C2)CN(c2ncnc4sc(CC(F)(F)F)cc24)C3)cc1 (single isomer, unassigned) [Compound 290]
58.4 | O=C1Cc2ccc(N[C@H]3CCC4(C3)CN(c3ncnc5sc(CC(F)(F)F)cc35)C4)cc2N1 (single isomer, unassigned) [Compound 294]
146 | O=c1[nH]c2ccc(N[C@@H]3CCC4(C3)CN(c3ncnc5sc(CC(F)(F)F)cc35)C4)cc2o1 (single isomer, unassigned) [Compound 296]
131 | O=c1[nH]c2ccc(N[C@H]3CCC4(C3)CN(c3ncnc5sc(CC(F)(F)F)cc35)C4)cc2o1 (single isomer, unassigned) [Compound 297]
128 | O=c1[nH]c2ccc(N[C@H]3CCC4(C3)CN(c3ncnc5sc(CC(F)(F)F)cc35)C4)cc2[nH]1 (single isomer, unassigned) [Compound 300]
521 | FC(F)(F)Cc1cc2c(N3CC4(CC[C@@H](Nc5ccc(-c6cn[nH]c6)cc5)C4)C3)ncnc2s1 (single isomer, unassigned) [Compound 303]
136 | FC(F)(F)Cc1cc2c(N3CCC4(CC(Nc5ccc6cc[nH]c6c5)C4)C3)ncnc2s1 (single isomer, unassigned) [Compound 312]
55.2 | FC(F)(F)Cc1cc2c(N3CCC4(CC(Nc5ccc6cc[nH]c6c5)C4)C3)ncnc2s1 (single isomer, unassigned) [Compound 313]
85.9 | O=c1[nH]c2ccc(NC3CC4(CCN(c5ncnc6sc(CC(F)(F)F)cc56)C4)C3)cc2o1 (single isomer, unassigned) [Compound 324]
206 | FC(F)(F)Cc1cc2c(N3CCC4(CC(Nc5ccc(-c6cn[nH]c6)cc5)C4)C3)ncnc2s1 (single isomer, unassigned) [Compound 328]
